Results on eight compounds are retold here after ChEMBL document CHEMBL1201862, “PubChem BioAssay data set” (2004).

Molecules are shown by their SMILES.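 48-hour exposure; five concentrations; linearly interpolated endpoints. Here, GI50 denotes the concentration required for 50% inhibition of growth.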 Activity calls are given as the source filed them. Cut-off read from the data, not from the text of the source: active = GI50 up to about 1.1 µM and inactive = higher. Where only a bound is given, the exact number is not on record here.

Common to all, as to test: inhibition of tumour cell growth, NCI panel, 48 h
Assay [1] has as its system A498.
For assay [2], the system named is CAKI-1.
The test system of assay [3] is HL-60.
Assay [4] relates to HT-29.
Assay [5] relates to Hs-578T.
The test system of assay [6] is IGROV-1.
For assay [7], the system named is KM12.
For assay [8], the system named is M14.
Assay [9] has as its system MCF7.
In assay [10] the test system is MDA-MB-435.
The test system of assay [11] is NCI-H460.
Assay [12] has as its system OVCAR-3.
The test system of assay [13] is OVCAR-5.
Assay [14] deals with SK-MEL-2.
The test system of assay [15] is SN12C.
In assay [16] the test system is SR.
Assay [17] relates to SW-620.
Assay [18] relates to TK-10.
For assay [19], the system named is NCI-H522.
For assay [20], the system named is RXF 393.

Turning to `CSc1ccc(/C=C2\N=C(c3ccccc3)N(/N=C/c3cc4cc(C)ccc4nc3Cl)C2=O)cc1`, the GI50 in [1] was 17.5 µM (inactive); in assay [2], 18.1 µM (inactive); in assay [3], 22 µM (inactive); in assay [4] it was 23.1 µM (inactive); in assay [5], 23.1 µM (inactive); in assay [6], 14.3 µM (inactive). For the same compound, the GI50 in assay [7] is 14.3 µM (inactive); in assay [8] it was 16.7 µM (inactive); in assay [9], 11.4 µM (inactive); in assay [10] it was 8.15 µM (inactive); in assay [11], 20.7 µM (inactive); in assay [12], 19.5 µM (inactive). In addition, the GI50 in assay [13] is 22.9 µM (inactive); in assay [14], 16.8 µM (inactive); in assay [15] it was 17.7 µM (inactive); in [16], 12.1 µM (inactive); in assay [17] it was 27.4 µM (inactive); in assay [18], 16.9 µM (inactive).
Consider `O=C(/C=C/c1cccs1)c1ccc([N+](=O)[O-])cc1`, for which the GI50 was > 100 µM (inactive) in [1]; > 100 µM (inactive) in assay [2]; 83.2 µM (inactive) in assay [3]; > 100 µM (inactive) in [4]; 65.5 µM (inactive) in assay [5]; > 100 µM (inactive) in assay [6]. Moreover, the GI50 in assay [7] is 71.9 µM (inactive); in assay [8], > 100 µM (inactive); in [9], 61.7 µM (inactive); in assay [10] it was > 100 µM (inactive); in assay [11], > 100 µM (inactive); in [14] it was > 100 µM (inactive). In addition, the GI50 in assay [15] was > 100 µM (inactive); in assay [16], 65.8 µM (inactive); in [17] it was > 100 µM (inactive); in assay [18] it was > 100 µM (inactive).
`CC(C)=CCN1c2ccccc2[C@@]2(CC=C(C)C)CCN(C)[C@@H]12` [(+)-DEBROMOFLUSTRAMINE B]: the GI50 in [2] was 26.8 µM (inactive); in assay [3] it was 16.1 µM (inactive); in assay [4], 19.5 µM (inactive); in [5] it was 22 µM (inactive); in assay [6], 21.6 µM (inactive); in [7], 24.5 µM (inactive). In addition, the GI50 was 17.3 µM (inactive) in assay [9]; 21.1 µM (inactive) in [10]; 14.8 µM (inactive) in assay [11]; 18.6 µM (inactive) in [19]; 18.1 µM (inactive) in [12]; > 100 µM (inactive) in [13]. In addition, the GI50 is 28.5 µM (inactive) in [20]; 14 µM (inactive) in assay [14]; 27.4 µM (inactive) in assay [15]; 33.4 µM (inactive) in [16]; 26.7 µM (inactive) in assay [17]; 35.9 µM (inactive) in assay [18].
With `Cc1cc(S(=O)(=O)N/C(=N/N)NCCc2ccccc2)c(S)cc1Cl`, the GI50 is 26.4 µM (inactive) in assay [2]; 44.1 µM (inactive) in assay [3]; 31.6 µM (inactive) in assay [4]; 25.5 µM (inactive) in assay [5]; 36 µM (inactive) in assay [6]; 23.4 µM (inactive) in [7]. The GI50 in [8] is 24.1 µM (inactive); in [9], 32.4 µM (inactive); in assay [10] it was 22 µM (inactive); in [19] it was 29.6 µM (inactive); in assay [12], 24.5 µM (inactive); in [13] it was 19.5 µM (inactive). The GI50 in assay [20] was 21.7 µM (inactive); in assay [14], 38.2 µM (inactive); in assay [15], 33.5 µM (inactive); in assay [16], 29.9 µM (inactive); in assay [17] it was 24 µM (inactive); in assay [18] it was 39.4 µM (inactive).
`COc1ccc(C2CC(c3c(O)ccc4ccccc34)=NN2C(C)=O)cc1OC` (stereo not drawn): the GI50 is 24.3 µM (inactive) in assay [1]; 36.5 µM (inactive) in assay [2]; 40 µM (inactive) in assay [4]; 36.9 µM (inactive) in assay [5]; 38.7 µM (inactive) in [6]; 34.2 µM (inactive) in [7]. Besides, the GI50 in [8] was 24.1 µM (inactive); in assay [9], 23.7 µM (inactive); in [10], 21.3 µM (inactive); in [11] it was 28.1 µM (inactive); in assay [19] it was 31.7 µM (inactive); in assay [12], 23.2 µM (inactive). The GI50 in assay [13] was 40.6 µM (inactive); in [20], 24.1 µM (inactive); in [14], 19.3 µM (inactive); in [15] it was 26.5 µM (inactive); in assay [16], 14.2 µM (inactive); in [17] it was 32.9 µM (inactive). Moreover, in assay [18], the GI50 is 53.3 µM (inactive).
With `O=C(CC(C(=O)c1ccsc1)c1ccsc1)c1ccsc1` (stereo not drawn), the GI50 in [1] was > 100 µM (inactive); in assay [2], > 100 µM (inactive); in [3] it was 35.2 µM (inactive); in assay [4], 77.6 µM (inactive); in [5], > 100 µM (inactive); in assay [6], > 100 µM (inactive). Moreover, the GI50 in [7] was 42.7 µM (inactive); in assay [8], 50.2 µM (inactive); in assay [9], 70.6 µM (inactive); in [10], 44.6 µM (inactive); in assay [11] it was 60 µM (inactive); in assay [14], > 100 µM (inactive). The GI50 is > 100 µM (inactive) in assay [15], 36.5 µM (inactive) in assay [16], > 100 µM (inactive) in assay [17] and > 100 µM (inactive) in assay [18].
`CCCCCCCCCCCCCC[S+](C)C`: the GI50 in assay [2] is 2.61 µM (inactive); in [3], 1.03 µM (active); in assay [4], 1.56 µM (inactive); in assay [5], 1.65 µM (inactive); in [6], 1.12 µM (inactive); in [7], 1.57 µM (inactive). The GI50 in assay [8] was 1.83 µM (inactive); in [9] it was 1.67 µM (inactive); in assay [10], 1.91 µM (inactive); in [11], 2.11 µM (inactive); in [19], 1.75 µM (inactive); in [12], 1.48 µM (inactive). Besides, the GI50 in assay [13] was 2.88 µM (inactive); in [20] it was 1.2 µM (inactive); in assay [14] it was 2.02 µM (inactive); in assay [15] it was 1.59 µM (inactive); in assay [16], 0.538 µM (active); in [17], 2.33 µM (inactive). For the same compound, the GI50 in assay [18] is 1.71 µM (inactive).
Consider `CN(C)S(=O)(=O)c1ccc2c(c1)/C(=C1/Nc3ccccc3C1=O)C(=O)N2`, for which the GI50 is 29.8 µM (inactive) in assay [1]; > 100 µM (inactive) in assay [2]; > 100 µM (inactive) in assay [4]; 14.4 µM (inactive) in assay [5]; 11.9 µM (inactive) in assay [6]; > 100 µM (inactive) in assay [7]. Also, the GI50 in assay [8] is > 100 µM (inactive); in [9], 24.8 µM (inactive); in assay [10] it was > 100 µM (inactive); in assay [11] it was 24.7 µM (inactive); in assay [19], 25.5 µM (inactive); in assay [12] it was 93.1 µM (inactive). Also, the GI50 in [13] is > 100 µM (inactive); in assay [20], 1.71 µM (inactive); in assay [14] it was 18.4 µM (inactive); in assay [15], 38 µM (inactive); in [16], 14.7 µM (inactive); in [17] it was > 100 µM (inactive). Further, the GI50 in assay [18] is 19.5 µM (inactive).
